Laboratory results taken from ChEMBL document CHEMBL1201862, “PubChem BioAssay data set” (2004).
The source made the active and inactive calls.

Assays:
[1] = biological target: Polyadenylate-binding protein 1 (Homo sapiens, UniProt P11940); assay: PABP1 MLLE–PAM2 binding inhibitor potency, dose response, biochemical, fluorescence polarization, FITC-PAM2 peptide (AID 602259); format: functional; conditions: read-out: IC50_Mean
[2] = biological target: T1, Lysine-specific demethylase 4C (Homo sapiens, UniProt Q9H3R0); assay: GASC-1 (JMJD2C) histone demethylase inhibitors, dose response, biochemical, DELFIA europium, cherry-picked samples (AID 488835); format: functional
T1 sequence (Q9H3R0 whole entry): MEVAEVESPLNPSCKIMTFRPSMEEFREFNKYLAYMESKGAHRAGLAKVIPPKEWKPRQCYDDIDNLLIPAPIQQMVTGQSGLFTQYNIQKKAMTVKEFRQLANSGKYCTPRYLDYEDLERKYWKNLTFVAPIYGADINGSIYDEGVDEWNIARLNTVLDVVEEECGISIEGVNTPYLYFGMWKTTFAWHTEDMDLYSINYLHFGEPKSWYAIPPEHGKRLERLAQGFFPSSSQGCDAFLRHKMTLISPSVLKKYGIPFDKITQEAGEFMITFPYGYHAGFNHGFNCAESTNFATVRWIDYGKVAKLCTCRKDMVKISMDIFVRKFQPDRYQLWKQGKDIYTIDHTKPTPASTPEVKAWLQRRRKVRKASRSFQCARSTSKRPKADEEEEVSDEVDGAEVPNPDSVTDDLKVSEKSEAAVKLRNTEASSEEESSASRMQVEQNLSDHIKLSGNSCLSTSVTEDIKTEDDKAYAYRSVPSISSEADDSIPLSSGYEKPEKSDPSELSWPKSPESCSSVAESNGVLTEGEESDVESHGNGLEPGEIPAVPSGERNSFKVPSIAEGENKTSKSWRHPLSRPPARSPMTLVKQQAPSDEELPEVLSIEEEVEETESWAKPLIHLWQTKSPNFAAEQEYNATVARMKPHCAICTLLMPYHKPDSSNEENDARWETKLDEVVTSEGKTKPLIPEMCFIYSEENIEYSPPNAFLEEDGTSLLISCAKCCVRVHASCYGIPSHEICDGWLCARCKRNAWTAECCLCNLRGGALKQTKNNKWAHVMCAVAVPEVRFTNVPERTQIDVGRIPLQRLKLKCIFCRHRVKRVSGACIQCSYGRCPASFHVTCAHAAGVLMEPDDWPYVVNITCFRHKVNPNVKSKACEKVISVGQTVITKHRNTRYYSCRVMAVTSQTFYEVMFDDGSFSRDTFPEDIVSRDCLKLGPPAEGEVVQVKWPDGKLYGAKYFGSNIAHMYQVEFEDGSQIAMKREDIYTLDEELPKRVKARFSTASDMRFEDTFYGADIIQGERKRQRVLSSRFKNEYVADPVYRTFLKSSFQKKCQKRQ

[3] = biological target: DNA (cytosine-5)-methyltransferase 1 (Homo sapiens, UniProt P26358); assay: DNMT1 methyltransferase inhibitors, confirmation, biochemical, fluorescent molecular beacon (AID 602386); format: functional
[4] = biological target: T2, Sentrin-specific protease 7 (Homo sapiens, UniProt Q9BQF6); format: functional;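 also: Luminescence-based dose-response confirmation of ultra-high-throughput screening hits, measuring inhibition of SENP7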
T2 sequence (Q9BQF6 whole entry): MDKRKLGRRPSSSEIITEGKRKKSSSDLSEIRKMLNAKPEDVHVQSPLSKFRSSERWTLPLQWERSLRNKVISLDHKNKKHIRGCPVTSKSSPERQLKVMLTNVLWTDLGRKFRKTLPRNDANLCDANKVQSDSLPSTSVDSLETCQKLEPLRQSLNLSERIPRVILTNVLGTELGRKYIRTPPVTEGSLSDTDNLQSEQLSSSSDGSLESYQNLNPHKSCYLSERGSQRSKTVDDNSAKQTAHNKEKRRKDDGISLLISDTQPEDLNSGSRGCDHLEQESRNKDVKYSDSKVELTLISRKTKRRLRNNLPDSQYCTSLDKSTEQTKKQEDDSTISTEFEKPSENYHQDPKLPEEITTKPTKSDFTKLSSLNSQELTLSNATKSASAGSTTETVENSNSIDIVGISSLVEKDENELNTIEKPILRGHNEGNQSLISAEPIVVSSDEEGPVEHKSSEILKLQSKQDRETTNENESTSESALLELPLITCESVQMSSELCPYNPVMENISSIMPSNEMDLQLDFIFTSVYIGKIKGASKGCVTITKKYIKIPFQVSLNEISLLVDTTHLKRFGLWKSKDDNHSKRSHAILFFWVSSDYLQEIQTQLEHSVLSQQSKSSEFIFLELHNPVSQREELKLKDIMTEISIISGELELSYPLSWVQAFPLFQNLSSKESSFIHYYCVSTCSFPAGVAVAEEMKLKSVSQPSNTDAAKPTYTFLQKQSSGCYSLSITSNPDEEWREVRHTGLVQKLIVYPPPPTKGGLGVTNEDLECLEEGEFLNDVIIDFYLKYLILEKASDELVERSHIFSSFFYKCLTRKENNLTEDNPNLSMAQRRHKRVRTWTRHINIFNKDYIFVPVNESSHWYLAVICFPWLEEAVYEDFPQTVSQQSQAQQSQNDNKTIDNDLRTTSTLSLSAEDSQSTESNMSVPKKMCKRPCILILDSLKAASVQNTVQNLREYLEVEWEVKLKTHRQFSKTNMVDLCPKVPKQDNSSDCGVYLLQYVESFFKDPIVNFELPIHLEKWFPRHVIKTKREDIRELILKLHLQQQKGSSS

[5] = cytotoxicity in HEK-293T cells, dose response, cytotoxicity control for TCR NF-kB inhibitor project, luminescence, T-cell screen hits (AID 489026); format: functional, cell-based;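 also: cells exposed to compound about 14 hours before the viability readout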

Sequence of Polyadenylate-binding protein 1 (P11940 whole entry): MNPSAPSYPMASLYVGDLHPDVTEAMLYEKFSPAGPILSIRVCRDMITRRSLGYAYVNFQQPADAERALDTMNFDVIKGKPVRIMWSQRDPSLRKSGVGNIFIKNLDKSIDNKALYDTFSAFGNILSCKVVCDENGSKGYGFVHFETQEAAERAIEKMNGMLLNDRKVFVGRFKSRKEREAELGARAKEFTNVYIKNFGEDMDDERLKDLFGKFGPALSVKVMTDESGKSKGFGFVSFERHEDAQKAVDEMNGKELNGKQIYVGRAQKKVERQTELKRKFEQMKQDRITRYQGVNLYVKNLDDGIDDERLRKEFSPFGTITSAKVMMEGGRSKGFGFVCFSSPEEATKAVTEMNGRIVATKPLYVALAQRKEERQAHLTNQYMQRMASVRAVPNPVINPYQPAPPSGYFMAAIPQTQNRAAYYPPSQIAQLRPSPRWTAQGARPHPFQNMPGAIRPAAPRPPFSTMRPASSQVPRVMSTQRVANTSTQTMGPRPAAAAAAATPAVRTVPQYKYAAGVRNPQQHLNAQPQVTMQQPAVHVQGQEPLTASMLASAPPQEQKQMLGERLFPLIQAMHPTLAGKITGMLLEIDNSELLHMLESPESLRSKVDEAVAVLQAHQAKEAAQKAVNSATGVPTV
Sequence of DNA (cytosine-5)-methyltransferase 1 (P26358 whole entry): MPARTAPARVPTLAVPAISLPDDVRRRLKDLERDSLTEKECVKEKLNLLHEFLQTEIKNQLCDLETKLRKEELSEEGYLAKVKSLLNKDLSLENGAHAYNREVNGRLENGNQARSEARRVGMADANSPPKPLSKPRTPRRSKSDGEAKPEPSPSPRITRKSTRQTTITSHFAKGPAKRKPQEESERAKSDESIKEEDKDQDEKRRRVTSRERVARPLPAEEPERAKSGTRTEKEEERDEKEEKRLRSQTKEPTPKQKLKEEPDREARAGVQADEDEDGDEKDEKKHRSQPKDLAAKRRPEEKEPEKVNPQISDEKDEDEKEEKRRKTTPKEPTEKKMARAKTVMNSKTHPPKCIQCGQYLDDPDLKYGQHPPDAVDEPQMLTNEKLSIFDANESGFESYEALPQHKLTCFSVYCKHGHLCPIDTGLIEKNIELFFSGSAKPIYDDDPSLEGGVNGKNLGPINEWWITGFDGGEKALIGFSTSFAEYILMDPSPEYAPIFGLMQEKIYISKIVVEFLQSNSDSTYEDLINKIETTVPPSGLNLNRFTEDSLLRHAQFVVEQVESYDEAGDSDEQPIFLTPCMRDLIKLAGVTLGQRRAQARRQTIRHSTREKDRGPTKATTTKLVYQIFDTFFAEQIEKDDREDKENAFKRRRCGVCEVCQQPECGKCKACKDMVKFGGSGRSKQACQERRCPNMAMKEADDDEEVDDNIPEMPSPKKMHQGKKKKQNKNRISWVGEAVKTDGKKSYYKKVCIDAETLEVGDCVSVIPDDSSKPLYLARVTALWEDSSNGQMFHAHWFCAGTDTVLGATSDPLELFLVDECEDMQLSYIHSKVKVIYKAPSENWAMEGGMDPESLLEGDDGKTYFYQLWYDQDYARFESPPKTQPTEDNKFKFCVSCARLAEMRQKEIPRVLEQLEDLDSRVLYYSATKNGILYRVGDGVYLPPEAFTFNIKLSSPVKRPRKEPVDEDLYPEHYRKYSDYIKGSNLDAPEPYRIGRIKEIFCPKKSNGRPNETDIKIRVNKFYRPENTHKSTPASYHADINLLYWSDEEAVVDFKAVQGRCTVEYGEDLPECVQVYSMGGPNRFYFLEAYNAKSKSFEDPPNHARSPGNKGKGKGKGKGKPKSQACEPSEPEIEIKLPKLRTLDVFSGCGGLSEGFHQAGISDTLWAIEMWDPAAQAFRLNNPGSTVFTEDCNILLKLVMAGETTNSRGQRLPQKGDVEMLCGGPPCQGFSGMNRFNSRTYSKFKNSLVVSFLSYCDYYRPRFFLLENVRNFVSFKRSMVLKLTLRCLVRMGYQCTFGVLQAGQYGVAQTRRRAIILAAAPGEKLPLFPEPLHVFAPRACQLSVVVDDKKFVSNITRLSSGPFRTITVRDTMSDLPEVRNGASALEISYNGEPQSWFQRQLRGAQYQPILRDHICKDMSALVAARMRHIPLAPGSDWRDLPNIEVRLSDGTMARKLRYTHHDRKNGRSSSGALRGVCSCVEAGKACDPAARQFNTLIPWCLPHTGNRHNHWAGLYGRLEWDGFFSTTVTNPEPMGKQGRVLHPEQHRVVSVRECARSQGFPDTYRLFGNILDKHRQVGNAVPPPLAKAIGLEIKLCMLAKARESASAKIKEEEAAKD

In the case of O=C(O)CSc1cc(NS(=O)(=O)c2ccc(Br)cc2)c2ccccc2c1O, the IC50 [1] is reported as > 66 µM (inactive).

For O=C1NC(=S)N/C1=C/c1cc2c(cc1[N+](=O)[O-])OCO2, the AC50 [2] was 30.4 µM (active), the IC50 [3] was 3.85 µM (active) and the IC50 [4] was 25.4 µM (active).

In the case of Cc1ccc(NC(=O)C2=C(c3ccccc3)S(=O)(=O)CCS2(=O)=O)cc1, the IC50 [5] is reported as > 80 µM (inactive).
